Where two headings read alike, the source gives them in different places.
Key:
MDA-MB-231 cells = experiment: Cell viability assay (PrestoBlue) in MDA-MB-231, with or without TNF; assay type: cell-based, human; details: 48 h treatment
Description: MDA-MB-231 cells (human breast adenocarcinoma cell line) were grown in standard conditions (37 °C, 5% CO2) in RPMI medium supplemented with 10% serum, 1 mg·mL^−1 penicillin, 100 μg·mL^−1 streptomycin and 2 mM l-glutamine. Cell viability was evaluated by using PrestoBlue^TM Cell Viability Reagent (Thermo Fisher Scientific, Rodano, Italy). Resazurin, the active nontoxic and non-fluorescent ingredient, is continuously converted in resorufin, a red fluorescent compound, in viable cells. Cells were seeded on black-wall, clear bottom 96-well microplates at a density of 50,000 cells/well. After 24 h, cells were treated with the FC2 derivatives from 1.5 μM to 100 μM (vehicle, DMSO) in the absence or presence of TNF at the concentration of 50 ng/mL. After 48 h, the fluorescence was determined using a fluorescence plate reader (Tristar2 S, Berthold Technologies, Bad Wildbad, Germany) equipped with 560 nm excitation and 585 nm emission filters. At least five replicates were performed for each condition. The EC50, was calculated plotting the percentage of cell survival against the compound concentration (A) and fitting the data with: % survival=Tmax−TminA/A+EC50+Tmin where Tmax and Tmin are the maximum and minimum effect induced by the compounds. Analysis was performed with IgorPro 8.04 software (Lake Oswego, OR, USA).

XIAP-BIR1 = XIAP-BIR1 (Homo sapiens, UniProt P98170); experiment: Trp fluorescence binding assay on XIAP-BIR1
XIAP-BIR1, sequence (P98170 10-99 limits assumed): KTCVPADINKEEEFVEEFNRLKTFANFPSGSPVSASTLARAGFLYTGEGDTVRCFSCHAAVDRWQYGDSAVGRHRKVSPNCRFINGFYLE
Description: (§1) The binding of FC2 derivatives to the BIR1 domains was assessed by in vitro fluorimetric assays.
(§2) The fluorescence intensity emitted by XIAP-BIR1 Trp73 or cIAP2-BIR1 Trp76 was measured by varying the concentration of the different ligands. The tests were performed with a spectral fluorimeter (Varian Cary Eclipse Fluorescence Spectrophotometer, Agilent Technologies), recording the fluorescence emission spectra between 300 and 400 nm (excitation 280 nm). XIAP-/ cIAP2-BIR1 protein samples were concentrated at 5 μM.
(§3) All the analyses were performed with GraFit version 5 (Erithacus Software Ltd., Horley, UK).

cIAP2-BIR1 = cIAP2-BIR1 (Homo sapiens, UniProt Q13489); experiment: Trp fluorescence binding assay on cIAP2-BIR1
cIAP2-BIR1, sequence (Q13489 26-99 limits assumed): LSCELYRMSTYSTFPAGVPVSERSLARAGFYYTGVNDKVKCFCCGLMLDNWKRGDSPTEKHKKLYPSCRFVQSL
Description: as §1, §2, §3

[1] = Homo sapiens, MDA-MB-231, 48 h, MDA-MB-231, in combination with 50 ng/mL TNF, read-out: EC50 (+TNF)
[2] = Homo sapiens, MDA-MB-231, 48 h, MDA-MB-231, single agent, read-out: EC50
[3] = Homo sapiens, MDA-MB-231, in combination with 50 ng/mL TNF, read-out: EC50 (+TNF)
[4] = Homo sapiens, MDA-MB-231, single agent, read-out: EC50
[5] = read-out: Kd (XIAP-BIR1), Trp fluorescence titration, 23 °C, pH 8.0
[6] = read-out: Kd (cIAP2-BIR1), Trp fluorescence titration, 23 °C, pH 8.0

| Compound | EC50 (MDA-MB-231 cells; [1]) [µM] | EC50 (MDA-MB-231 cells; [2]) [µM] | Kd (XIAP-BIR1) [µM] | Kd (cIAP2-BIR1) [µM] | EC50 (MDA-MB-231 cells; [3]) [µM] | EC50 (MDA-MB-231 cells; [4]) [µM] | Kd (XIAP-BIR1; [5]) [µM] | Kd (cIAP2-BIR1; [6]) [µM] | EC50 (MDA-MB-231 cells; MDA-MB-231, single agent) | EC50 (MDA-MB-231 cells; MDA-MB-231, single agent, read-out: EC50) [µM] |
| --- | --- | --- | --- | --- | --- | --- | --- | --- | --- | --- |
| O=C1CCCC2=C1C(c1ccc(C(F)(F)F)cc1)Nc1ccc(C(=O)c3ccccc3)cc1N2 (centres unmarked) [4h] | 48.8 ± 5.72 | 22.3 ± 8.67 | 14.9 ± 3.8 | 43.4 ± 13.9 | – | – | – | – | – | – |
| COc1cc(C2Nc3ccc(C(=O)c4ccccc4)cc3NC3=C2C(=O)CCC3)cc([N+](=O)[O-])c1O (centres unmarked) [4v] | – | – | 46.4 ± 5.31 | 38 ± 2.78 | 26.8 ± 12.5 | 31.4 ± 11.4 | – | – | – | – |
| COc1ccc(C2Nc3ccc(C(=O)c4ccccc4)cc3NC3=C2C(=O)CCC3)cc1OC (centres unmarked) [4o] | 15.4 ± 6.86 | 13.5 ± 4.67 | 7.5 ± 2.9 | 12 ± 2.4 | – | – | – | – | – | – |
| O=C1CCCC2=C1C(c1ccc(O)cc1)Nc1ccc(C(=O)c3ccccc3)cc1N2 (centres unmarked) [4j] | 59.7 ± 14.8 | 48.2 ± 15.1 | – | – | – | – | 7.26 ± 0.98 | 27.6 ± 3.16 | – | – |
| O=C1CCCC2=C1C(c1ccccc1)Nc1ccc(C(=O)c3ccccc3)cc1N2 (centres unmarked) [4d, 7-benzoyl-11-phenyl-2,3,4,5,10,11-hexahydro-1H-dibenzo[b,e][1,4]diazepin-1-one] | 69.2 ± 8.1 | 19.6 ± 4.23 | 4.4 ± 2.2 | 21.9 ± 6.2 | – | – | – | – | – | – |
| COc1cccc(C2Nc3ccc(C(=O)c4ccccc4)cc3NC3=C2C(=O)CCC3)c1 (centres unmarked) [4k] | 13 ± 4.15 | 10.3 ± 4.63 | – | – | – | – | > 50 | > 50 | – | – |
| COc1ccc(C2Nc3ccc(C(=O)c4ccccc4)cc3NC3=C2C(=O)CCC3)cc1 (centres unmarked) [4g] | 36.3 ± 10.4 | 67.2 ± 7.6 | 18 ± 5.4 | – | – | – | – | – | – | – |
| O=C1CCCC2=C1C(c1ccc(Cl)cc1)Nc1ccc(C(=O)c3ccccc3)cc1N2 (centres unmarked) [4i] | 22.2 ± 6.67 | 25.9 ± 7.03 | > 50 | > 50 | – | – | – | – | – | – |
| O=C1CCCC2=C1C(c1ccc(O)c(O)c1)Nc1ccc(C(=O)c3ccccc3)cc1N2 (centres unmarked) [4p] | 9.5 ± 4.73 | 6.92 ± 2.43 | 15.9 ± 5.2 | 26.9 ± 4.3 | – | – | – | – | – | – |
| COc1cc(C2Nc3ccc(C(=O)c4ccccc4)cc3NC3=C2C(=O)CCC3)ccc1O (centres unmarked) [4r] | – | – | 33.1 ± 1.4 | 46 ± 8.33 | 12.8 ± 1.9 | 7.49 ± 1.65 | – | – | – | – |
| CC1(C)CC(=O)C2=C(C1)Nc1cc(C(=O)c3ccccc3)ccc1NC2c1c[nH]c2ccccc12 (centres unmarked) [4a, 7-benzoyl-11-(1H-indol-3-yl)-3,3-dimethyl-2,3,4,5,10,11-hexahydro-1H-dibenzo[b,e][1,4]diazepin-1-one] | 16.9 ± 7.14 | 42.8 ± 10.1 | 6.8 ± 1.3 | 1.3 ± 0.7 | – | – | – | – | – | – |
| Cc1ccc(C2Nc3ccc(C(=O)c4ccccc4)cc3NC3=C2C(=O)CCC3)cc1 (centres unmarked) [4e, 7-benzoyl-11-(p-tolyl)-2,3,4,5,10,11-hexahydro-1H-dibenzo[b,e][1,4]diazepin-1-one] | 47.9 ± 9.7 | 38.9 ± 7.55 | > 50 | 27.6 ± 7.3 | – | – | – | – | – | – |
| O=C1CCCC2=C1C(c1ccc3c(c1)OC(F)(F)O3)Nc1ccc(C(=O)c3ccccc3)cc1N2 (centres unmarked) [4q] | – | – | 41.8 ± 11.7 | 16.4 ± 2.9 | 14 ± 2.4 | 14.7 ± 4.98 | – | – | – | – |
| COc1cccc(C2Nc3ccc(C(=O)c4ccccc4)cc3NC3=C2C(=O)CCC3)c1O (centres unmarked) [4t] | – | – | > 50 | > 50 | – | – | – | – | without activity | – |
| O=C1CCCC2=C1C(c1cccs1)Nc1ccc(C(=O)c3ccccc3)cc1N2 (centres unmarked) [4b, 7-benzoyl-11-(thiophen-2-yl)-2,3,4,5,10,11-hexahydro-1H-dibenzo[b,e][1,4]diazepin-1-one] | 9.2 ± 5.75 | 21.9 ± 8.17 | 30 ± 7.47 | 46.3 ± 24.8 | – | – | – | – | – | – |
| O=C1CCCC2=C1C(c1c[nH]c3ccccc13)Nc1ccc(C(=O)c3ccccc3)cc1N2 (centres unmarked) [FC2, 7-benzoyl-11-(1H-indol-3-yl)-2,3,4,5,10,11-hexahydro-1H-dibenzo[b,e][1,4]diazepin-1-one] | – | – | – | – | 9.08 ± 1.85 | 11.4 ± 2.08 | – | – | – | – |
| Cc1ccc(C2Nc3ccc(C(=O)c4ccccc4)cc3NC3=C2C(=O)CCC3)o1 (centres unmarked) [4c, 7-benzoyl-11-(5-methylfuran-2-yl)-2,3,4,5,10,11-hexahydro-1H-dibenzo[b,e][1,4]diazepin-1-one] | 45.3 ± 3.75 | 65 | > 50 | > 50 | – | – | – | – | – | 65.1 ± 2.43 |
| O=C1CCCC2=C1C(c1ccc(O)c([N+](=O)[O-])c1)Nc1ccc(C(=O)c3ccccc3)cc1N2 (centres unmarked) [4u] | – | – | – | – | 9.53 ± 3.61 | 17 ± 5.4 | 37.3 ± 4.45 | > 50 | – | – |
| Nc1cccc(C2Nc3ccc(C(=O)c4ccccc4)cc3NC3=C2C(=O)CCC3)c1 (centres unmarked) [4n] | – | – | 38.1 ± 1.68 | 26.5 ± 1.07 | – | – | – | – | loss of activity | – |
| O=C1CCCC2=C1C(c1cccc(O)c1)Nc1ccc(C(=O)c3ccccc3)cc1N2 (centres unmarked) [4l] | 16.1 ± 3.7 | 18.6 ± 2.56 | 22 ± 1.18 | 38.6 ± 3.56 | – | – | – | – | – | – |
| O=C1CCCC2=C1C(c1cccc([N+](=O)[O-])c1)Nc1ccc(C(=O)c3ccccc3)cc1N2 (centres unmarked) [4m] | – | – | – | 20.5 ± 4 | 3.82 ± 1.41 | 5.54 ± 1.03 | – | – | – | – |
| COc1ccc(C2Nc3ccc(C(=O)c4ccccc4)cc3NC3=C2C(=O)CCC3)cc1O (centres unmarked) [4s] | – | – | > 50 | > 50 | 14.6 ± 1.74 | 15.2 ± 3.63 | – | – | – | – |
